What was measured:
[1] = test system: HCV replication, SGR-Neo-RLuc-JFH1-2A replicon cells established in Huh-7.5; assay: HCV replication in subgenomic replicon cells (Renilla luciferase); assay type: cell-based, Hepatitis C virus; details: Hepatitis C virus, Huh7.5; replicon cells, luciferase activity; read-out: IC50, inhibition of HCV replication
Excerpt: (§1) The compounds bind their cognate loops in the 3′ UTR with mid-nanomolar to low micromolar affinities (Table 1). It was next determined if the identified compounds could inhibit HCV RNA replication in HCV subgenomic replicon cells, in particular SGR-Neo-RLuc-JFH1-2A replicon cells established in Huh-7.5 (human hepatoma cells). In this system, an autonomously replicating viral RNA replicon is used to monitor efficiently RNA replication of the virus in the absence of spread of viral RNA to adjacent cells. This is achieved by replacing the structural proteins required to assembly progeny virions with a drug selectable marker (Neo) and a Renilla luciferase (RLuc) reporter gene. Once this replicon has been delivered to human hepatoma cells and selection with G418 (conferred by Neo selectable marker) has occurred, the expression and Renilla luciferase activity is directly correlated with the level of HCV replication^57.
They were therefore assayed for their ability to inhibit HCV replication using this replicon system, with DMSO vehicle and 2′-C-methyladenosine^17 triphosphate serving as negative and positive controls, respectively.
(§2) Effect of compounds on HCV replication. […] Cytotoxicity assays. […] Oligonucleotide profiling of target engagement in vitro. […] Primers can be found in Table 4. […] Inhibition of kinases. […] . Figure S7C).

[2] = test system: RNA motif libraries A-E; assay: 2DCS: array-immobilized small molecules incubated with RNA motif libraries; assay type: binding; details: libraries C-E
Excerpt: (§3) Identification of RNA-binding Small Molecules by 2DCS. […] We have previously validated the secondary structures formed by members of RNA libraries by enzymatic mapping^8, 12, 34. These discrete RNA motifs were selected because they are present in cellular RNAs. Due to the library-versus-library nature of these studies, they represent the largest screens completed to date, probing >52,000,000 interactions. Of the 1,987 compounds probed, 239 bound RNA (12.0%).
A final screen was then completed in which the 91 array-immobilized compounds were incubated with all five RNA motif libraries separately in the presence of oligonucleotide competitors F-J, d(AT)11 and d(GC)11. Oligonucleotides F-J mimic regions common to all library members, restricting binding to the randomized regions. (Note: oligonucleotide J was not used for hairpin selections.) After rigorous washing to remove unbound RNAs, bound RNAs were harvested and identified by RNA-seq. […]
Identification of Privileged RNA Space by RNA-Seq. […] RNA-seq data were then analyzed by High Throughput Structure-Activity Relationships Through Sequencing (HiT-StARTS)^12 to identify the privileged RNA motifs that bind each small molecule. […] Next, the most privileged RNA motif binders and the most discriminated against RNA motifs (non-binders) for each compound selection was analyzed by generating LOGOS from the highest and lowest 0.5% of Zobs scores^37. […]

[3] = test system: RNA library A (5-nucleotide hairpin library); assay: 2DCS selection with LOGOS analysis; assay type: binding; details: 5-nucleotide hairpins
Excerpt: as §3
A final screen was then completed in which the 91 array-immobilized compounds were incubated with all five RNA motif libraries separately in the presence of oligonucleotide competitors F-J, d(AT)11 and d(GC)11. Oligonucleotides F-J mimic regions common to all library members, restricting binding to the randomized regions. (Note: oligonucleotide J was not used for hairpin selections.) After rigorous washing to remove unbound RNAs, bound RNAs were harvested and identified by RNA-seq. By completing selections under conditions of high oligonucleotides stringency (by use of excess competitor oligonucleotides), these studies identified small molecules that bound RNA motifs avidly. A challenge in the small molecule RNA-targeting area has been the development and identification of selective interactions between small molecules and RNAs. In myriad studies, 2DCS has defined selective RNA motif-small molecule interactions with varied affinities^11, 12, 35, 36.
Identification of Privileged RNA Space by RNA-Seq. Using RNA-seq, a large sequencing dataset was obtained for each pool of RNAs that were specifically bound to each small molecule. RNA libraries A, B, C, D, and E had at least 12.1-fold (average: 133.1±111.8), 6.7-fold (average: 80.8±78.7), 9.9-fold (average: 103.5±110.6), 7.2-fold (average: 75.7±65.6), and 6.0-fold (average: 36.3±31.6) coverage for each small molecule selection, respectively, as compared to the number of unique sequences within the corresponding RNA library. It was previously shown that at least 6-fold coverage is required to generate binding landscape maps^12. RNA-seq data were then analyzed by High Throughput Structure-Activity Relationships Through Sequencing (HiT-StARTS)^12 to identify the privileged RNA motifs that bind each small molecule. Briefly, the frequency of occurrence of a selected RNA was compared to the frequency of occurrence of the same RNA from RNA-seq analysis of the starting RNA library to account for biases arising during transcription and RT-PCR. This pooled population comparison affords the parameter Zobs, a metric of statistical confidence. A large, positive Zobs indicates a strong preference for binding the motif while a negative Zobs indicates a strong preference against binding the motif. A Fitness Score is assigned by normalizing the Zobs values to the most statistically significant small molecule-RNA interaction to 100. […] Structure-Activity Relationships (SAR). Next, the most privileged RNA motif binders and the most discriminated against RNA motifs (non-binders) for each compound selection was analyzed by generating LOGOS from the highest and lowest 0.5% of Zobs scores^37. By comparing the LOGOS for related compounds, or DiffLogos, SAR can be defined. Indeed, various hit compounds differ by a single functional group, including compounds A and B (FIG. 5). […] In contrast, the RNA motifs most hindered from binding compounds 1 and 2 (discriminated against) are quite different (FIG. 5B).
Four compounds that share an indolylpyrimidine-2,4-diamine core bound members of A (5-nucleotide hairpin library).
Oligonucleotides. All DNA oligonucleotides were purchased from Integrated DNA Technologies, Inc. (IDT) and used without further purification. RNA oligonucleotide competitors were purchased from Dharmacon and de-protected according to the manufacturer's standard procedure. All oligonucleotide solutions were prepared with NANOpure water. […]

[4] = biological target: HCV RNA motif 5′CUG3′/3′G_C5′ (SL II); assay: In solution, fluorescence-based binding affinity assay, HCV RNA motifs; set-up: species or system Hepatitis C virus
Excerpt: as §1
(§4) where n1 is the size of Population 1 (number of sequencing reads for a given RNA from RNA-seq analysis of the selected library), n2 is the size of Population 2 (number of sequencing reads for the same RNA from RNA-seq analysis of the starting library), p1 is the observed proportion of Population 1 (the number of reads for a given RNA from selected library/total number of reads), and p2 is the observed proportion for Population 2 (the number of reads for the same RNA in the starting library/total number of reads). Generation of Logos and DiffLogos: Zobs corresponding to the highest (enriched) 0.5% and lowest (discriminated against) 0.5% scores were analyzed to generate consensus sequences, or Logos. The resulting list of sequences were converted to position weight matrix (PWM) lists for each compound. “Enriched” and “discriminated” sequences were kept separate using JMP®, Version <13.2.1>. SAS Institute Inc., Cary, N.C., 1989-2007. The R package Difflogo,^16 which is part of Bioconductor, was utilized to create the sequence logos from PWM lists for each compound and visually compare the differences between them. Binding Affinity Measurements. Dissociation constants were determined using an in solution, fluorescence-based assay. […] Serial dilutions (1:2) of the small molecule were then completed in 1× Assay Buffer supplemented with 1 mM MgCl2. The solutions were incubated for 30 min at room temperature, transferred to a 96-well plate, and fluorescence intensity measured on a BioTek-FLx800 plate reader. The change in fluorescence intensity as a function of small molecule concentration was fit to a one site binding model per equation 3: […]
as §2

[5] = biological target: HCV RNA motif 5′GUG3′/3′C_C5′ (SL I and SL III); assay: as above; set-up: species or system Hepatitis C virus
Excerpt: as §1, §4, §2

[6] = biological target: HCV RNA motif 5′UAG3′/3′A_C5′ (SL I); assay: as above; set-up: species or system Hepatitis C virus
Excerpt: as §1, §4, §2

[7] = test system: panel of 22 kinases; assay: In vitro inhibition of a panel of kinases; assay type: biochemical; details: 20 μM; panel of 22 kinases

C[C@@]1(O)[C@H](O)[C@@H](CO)O[C@H]1n1cnc2c(N)ncnc21 [2′-C-methyladenosine, reference compound]
IC50 [1]: 4.5 ± 0.1 µM

CNc1nc(Nc2ccc(C3=NCCN3)cc2)nc(Nc2ccc(C3=NCCN3)cc2)n1 [Compound 2]
closing base pair preference (LOGOS) [2]: potential preference for GU closing base pairs

Cn1ccc2cc(-c3cc(NCc4nc5ccccc5[nH]4)nc(N)n3)ccc21 [Compound 3]
nucleotide preference in position 1 (LOGOS) [3]: strong preference for G | nucleotide preference in position 4 (LOGOS) [3]: G>U>>A or C

COc1cc(Nc2cc(-c3ccc4c(ccn4C)c3)nc(N)n2)cc(OC)c1OC [Compound 4]
nucleotide preference in position 1 (LOGOS) [3]: strong preference for G | nucleotide preference in position 4 (LOGOS) [3]: G>C>>A or U

Cn1ccc2cc(-c3cc(NCc4cccc(C(F)(F)F)c4)nc(N)n3)ccc21 [Compound 5]
nucleotide preference in position 4 (LOGOS) [3]: G>U>>A or C

Cn1ccc2cc(-c3cc(NCc4cccnc4)nc(N)n3)ccc21 [Compound 6]
nucleotide preference in position 4 (LOGOS) [3]: G≈U>>A or C

O=C(Nc1cc(C2=NCCN2)cc(C2=NCCN2)c1)c1ccc(C(=O)Nc2cc(C3=NCCN3)cc(C3=NCCN3)c2)cc1 [Compound 9]
Affinity [4]: N.B. | Affinity [5]: N.B. | Kd [6]: 1.3 ± 0.5 µM | IC50 [1]: > 100 µM | kinases inhibited in the panel [7]: No kinases were significantly inhibited

O=C(Nc1cccc(C2=NCCN2)c1)c1ccc(-c2ccc(C(=O)Nc3cccc(C4=NCCN4)c3)cc2)cc1 [Compound 10]
Kd [4]: 7.1 ± 4.2 µM | Kd [5]: 3.35 ± 0.77 µM | Kd [6]: 0.46 ± 0.14 µM | IC50 [1]: 19 ± 2 µM | kinases inhibited in the panel [7]: No kinases were significantly inhibited
